Here are results for three molecules from patent EP0354453A2, “Antimicrobial agent for animals” (priority 1988, dated 1990).

Each structure is given as a SMILES string. Values after ≈ are worked out from the molar mass of the structure shown. Structures can show the parent of a compound that is named as a salt. Where two headings read alike, the source gives them in different places. A value given as a limit tells only on which side of the number the result lay.

Assay type in all cases: cell-based
In test [1] the test system is Salmonella typhimurium 569. In words: in vitro antimicrobial activity (MIC), agar dilution, Part 2. On the procedure:
(§1) Test microorganisms listed in Table 2 were cultured overnight in heart infusion nutrient broth (produced by Eiken Chemical Co., Ltd.). Culture broth containing about 10⁸/ml cells was diluted to a volume of 100 times. An aliquot (about 0.05 ml) of the diluted broth was inoculated onto a Mueller Hinton agar plate (produced by Eiken Chemical Co., Ltd.) to which Compound No. 1 was added in a prescribed concentration. […]
(§2) MIC of Compounds (1)-(8) against various pathogenic bacteria derived from animals was determined in the same manner as in Example 1.
Background: Agar dilution tests growth on a series of plates holding different concentrations.

The subject of another test is Escherichia coli 881. The description is as above. Here is the method:
as §1, §2

The test system of test [2] is Bordetella bronchiaseptica OKM-1. Described as above. On the procedure: as §1, §2
In the next test the test system is Escherichia coli S6W. The test is described as above. On the procedure:
as §1, §2

The test system of test [3] is Mycoplasma gallisepticum Strain T-2. Nature of the test: in vitro antimicrobial activity (MIC) in Frey liquid medium. The settings on record: Mycoplasmoides gallisepticum. On the procedure:
(§3) Various test strains of Mycoplasma gallisepticum derived from chicken were cultured in a Frey liquid medium for Mycoplasma for 3 days. The culture broth containing about 10⁸/ml cells was diluted to a volume of 100 times. The diluted broth was inoculated into Frey liquid media for Mycoplasma to which the compounds of this invention were added at prescribed concentrations. The cells were incubated at 37°C for 3-5 days while daily observing the color of the media. Among the culture broths maintaining yellow color at the time when the control to which no test compound was added turned red, the concentration of the broth having the minimum concentration was taken as the MIC of the compound.

Test [4] concerns Mycoplasma gallisepticum Strain 2012. Described as above. The following applies: Mycoplasmoides gallisepticum, STRAIN2012. Here is the method:
as §3

In test [5] the test system is Mycoplasma gallisepticum Strain T-7. Described as above. The settings on record: Mycoplasmoides gallisepticum, Mycoplasma gallisepticum Strain T-7, from chicken, 37°C, 3-5 days. On the procedure:
as §3

Test [6] relates to Mycoplasma gallisepticum Strain DP-1047. The test is described as above. The following applies: Mycoplasmoides gallisepticum. On the procedure: as §3
Test [7] concerns Mycoplasma gallisepticum Strain 2004. The description is as above. The settings on record: Mycoplasmoides gallisepticum, STRAIN2004. On the procedure: as §3
The subject of test [8] is Salmonella typhimurium 103. Nature of the test: in vitro antimicrobial activity (MIC), agar dilution, Part 2. The following applies: Salmonella enterica. On the procedure:
as §1, §2

The next test deals with Escherichia coli 139. The description is as above. On the procedure:
as §1, §2

For test [9], the system named is Staphylococcus aureus Yamaguchi 6. Described as above. Here is the method: as §1, §2
Test [10] deals with Pasteurella multocida DB-12-1. The test is described as above. The following applies: DB121. On the procedure:
as §1, §2

Usually MIC stands for the smallest concentration in the dilution series that meets the test's criterion for growth inhibition. On to `CCN1CCN(c2c(F)cc3c(=O)c(C(=O)O)cn4c3c2OCC4C)CC1` (racemic) [Compound (8), 3(RS)-9-fluoro-2,3-dihydro-3-methyl-10-(4-ethyl-1-piperazinyl)-7-oxo-7H-pyrido[1,2,3-de] [1,4]benzoxazine-6-carboxylic acid hydrochloride hemihydrate], for which the minimum inhibitory concentration (MIC) in test [1] (Salmonella typhimurium 569, Pig, listed as No. 8, hydrochloride hemihydrate) came to 0.2 µg/mL; in the test with Escherichia coli 881 (Escherichia coli 881, Pig, listed as No. 8, hydrochloride hemihydrate) it was 0.2 µg/mL; in [2] (Bordetella bronchiaseptica OKM-1, Pig, listed as No. 8, hydrochloride hemihydrate), 0.39 µg/mL; against Escherichia coli S6W (Escherichia coli S6W, Chicken, listed as No. 8, hydrochloride hemihydrate), 0.2 µg/mL.
In the case of `CC(C)N1CCN(c2c(F)cc3c(=O)c(C(=O)O)cn4c3c2OCC4C)CC1` (racemic) [(4), 3(RS)-9-fluoro-2,3-dihydro-3-methyl-10-(4-iso-propyl-1-piperazinyl)-7-oxo-7H-pyrido[1,2,3-de] [1,4]benzoxazine-6-carboxylic acid], the MIC in test [3] (Mycoplasma gallisepticum Strain T-2, from chicken, Frey liquid medium, 37°C, 3-5 days, read-out: MIC) came to 0.39 µg/mL (≈ 1 µM); in [4] (Mycoplasma gallisepticum Strain 2012, from chicken, Frey liquid medium, 37°C, 3-5 days, read-out: MIC), 0.05 µg/mL (≈ 0.128 µM); in test [5], 0.39 µg/mL (≈ 1 µM); in test [6] (Mycoplasma gallisepticum Strain DP-1047, from chicken, Frey liquid medium, 37°C, 3-5 days, read-out: MIC), 0.2 µg/mL (≈ 0.514 µM); in test [7] (Mycoplasma gallisepticum Strain 2004, from chicken, Frey liquid medium, 37°C, 3-5 days, read-out: MIC), 0.05 µg/mL (≈ 0.128 µM); in test [8] (Salmonella typhimurium 103, Chicken, read-out: MIC), 0.78 µg/mL (≈ 2 µM). Further, the MIC in [1] (Salmonella enterica, TYPHIMURIUM, Salmonella typhimurium 569, Pig, read-out: MIC) was found to be 0.78 µg/mL (≈ 2 µM); in the test with Escherichia coli 139 (Escherichia coli 139, Cow, read-out: MIC) it was 0.78 µg/mL (≈ 2 µM); with Escherichia coli 881 (Escherichia coli, 881, Escherichia coli 881, Pig, read-out: MIC), 0.39 µg/mL (≈ 1 µM); in test [2] (Bordetella, OKM1, Bordetella bronchiaseptica OKM-1, Pig, read-out: MIC) it was 0.78 µg/mL (≈ 2 µM); in test [9] (Staphylococcus aureus Yamaguchi 6, Chicken, read-out: MIC) it was 0.78 µg/mL (≈ 2 µM); in [10] (Pasteurella multocida DB-12-1, Pig, read-out: MIC), 0.2 µg/mL (≈ 0.514 µM). In the test on Escherichia coli S6W (Escherichia coli, S6W, Escherichia coli S6W, Chicken, read-out: MIC), the MIC is 0.78 µg/mL (≈ 2 µM).
In the case of `CCn1cc(C(=O)O)c(=O)c2cc3c(cc21)OCO3` [Oxolinic acid, reference compound], the MIC in test [3] is above 100 µg/mL; in test [4] it was above 100 µg/mL; in test [6], above 100 µg/mL; in test [7], above 100 µg/mL; in test [8] (TYPHIMURIUM), 0.78 µg/mL (≈ 2.99 µM); in [1] (Salmonella enterica, TYPHIMURIUM) it was 0.39 µg/mL (≈ 1.49 µM). For the same molecule, the MIC worked out at 0.78 µg/mL (≈ 2.99 µM) against Escherichia coli 139 (Escherichia coli, 139); 0.39 µg/mL (≈ 1.49 µM) against Escherichia coli 881 (Escherichia coli, 881); 1.56 µg/mL (≈ 5.97 µM) in test [2] (Bordetella, OKM1); 3.13 µg/mL (≈ 12 µM) in test [9] (Staphylococcus aureus); 0.2 µg/mL (≈ 0.766 µM) in [10] (Pasteurella multocida); 0.39 µg/mL (≈ 1.49 µM) against Escherichia coli S6W (Escherichia coli, S6W).
